# Test results taken from publication PMC3854790, “CRIS—A Novel cAMP-Binding Protein Controlling Spermiogenesis and the Development of Flagellar Bending” (PLoS Genetics, 2013).
# Molecular target: T1, mCRIS CNBD (cit-mCNBD-cer FRET sensor) (Mus musculus, UniProt Q9D5U8)
# T1 construct: gene Cnbd2; CNBD, aa 202-353 of mCRIS cDNA from mouse testis; citrine at N terminus, cerulean-His10 at C terminus (also printed cer-mCNBD-cit); expressed in CHO cells
# Experiment: intramolecular FRET (cerulean/citrine ratio), live-cell imaging
# Type: cell-based
# Settings: 3 mM 8-Br-cAMP perfused on CHO cells, 10 min
# T1 sequence (Q9D5U8 202-353): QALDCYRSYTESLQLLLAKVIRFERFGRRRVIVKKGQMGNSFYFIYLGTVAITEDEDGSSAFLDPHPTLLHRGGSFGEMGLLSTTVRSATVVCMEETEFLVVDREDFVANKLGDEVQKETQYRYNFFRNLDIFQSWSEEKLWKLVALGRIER
structure (smiles),measurement,value
Nc1ncnc2c1nc(Br)n2[C@@H]1O[C@@H]2COP(=O)(O)O[C@H]2[C@H]1O [8-Br-cAMP],change in FRET (normalized emission ratio),"Addition of 8-Br-cAMP, a membrane-permeable cAMP analogue, or NKH477, an activator of adenylyl cyclases, changed"
